Source: paper PMC4451461, “SimC7 Is a Novel NAD(P)H-Dependent Ketoreductase Essential for the Antibiotic Activity of the DNA Gyrase Inhibitor Simocyclinone” (Journal of Molecular Biology, 2015)

Assays:
Assay type in all cases: biochemical
[1] = molecular target: T1, DNA gyrase subunit A (GyrA) (Escherichia coli, UniProt P0AES4); assay: DNA gyrase supercoiling inhibition; SPR showed only weak, non-specific binding to GyrA; set-up: DNA gyrase; with GyrB
Target sequence in this assay (P0AES4 2-875): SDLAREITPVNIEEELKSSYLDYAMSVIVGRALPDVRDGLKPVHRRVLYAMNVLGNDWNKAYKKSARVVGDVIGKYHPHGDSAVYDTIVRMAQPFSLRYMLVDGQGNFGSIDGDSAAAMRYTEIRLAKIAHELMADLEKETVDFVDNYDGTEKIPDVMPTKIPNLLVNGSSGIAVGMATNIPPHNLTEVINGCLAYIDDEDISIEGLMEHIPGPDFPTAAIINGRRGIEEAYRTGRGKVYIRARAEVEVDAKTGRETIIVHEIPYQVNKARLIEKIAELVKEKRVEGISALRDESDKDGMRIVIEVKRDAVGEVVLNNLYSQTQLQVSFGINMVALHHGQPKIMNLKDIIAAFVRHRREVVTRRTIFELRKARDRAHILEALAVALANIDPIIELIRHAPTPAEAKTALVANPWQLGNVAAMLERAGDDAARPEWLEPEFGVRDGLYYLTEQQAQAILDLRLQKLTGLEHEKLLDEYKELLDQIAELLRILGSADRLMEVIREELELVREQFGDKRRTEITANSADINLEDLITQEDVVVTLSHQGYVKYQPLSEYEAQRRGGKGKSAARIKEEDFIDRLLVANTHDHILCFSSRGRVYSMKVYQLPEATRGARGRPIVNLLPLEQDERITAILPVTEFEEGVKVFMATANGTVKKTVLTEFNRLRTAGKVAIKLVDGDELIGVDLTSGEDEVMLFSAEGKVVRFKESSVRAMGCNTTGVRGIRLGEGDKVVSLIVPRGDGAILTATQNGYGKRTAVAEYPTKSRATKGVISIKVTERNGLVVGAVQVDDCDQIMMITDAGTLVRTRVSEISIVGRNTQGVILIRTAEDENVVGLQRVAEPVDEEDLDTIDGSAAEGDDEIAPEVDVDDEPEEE

[2] = molecular target: T1, DNA gyrase subunit A (GyrA); assay: DNA gyrase inhibition (supercoiling) assay; set-up: DNA gyrase; with GyrB
Target sequence in this assay (P0AES4 2-875): as above

SimC7 [3] = molecular target: T2, SimC7 (Streptomyces antibioticus, UniProt G9VYV4); assay: HPLC-UV ketoreductase assay ([…] NAD(P)H)
T2 construct: N-terminally His-tagged SimC7
T2 sequence (G9VYV4 1-284): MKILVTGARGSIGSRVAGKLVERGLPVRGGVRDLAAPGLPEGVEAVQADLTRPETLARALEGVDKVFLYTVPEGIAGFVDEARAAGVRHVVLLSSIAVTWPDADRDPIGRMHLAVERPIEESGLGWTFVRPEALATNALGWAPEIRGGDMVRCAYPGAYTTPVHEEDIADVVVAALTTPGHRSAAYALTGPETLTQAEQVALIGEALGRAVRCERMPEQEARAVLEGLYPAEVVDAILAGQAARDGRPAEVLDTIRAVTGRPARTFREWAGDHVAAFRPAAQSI

[4] = molecular target: T1, DNA gyrase subunit A (GyrA); assay: SPR to GyrA N-terminal domain (data not shown); DNA gyrase supercoiling inhibition; set-up: GyrA N-terminal domain (SPR); DNA gyrase (supercoiling); with GyrB (supercoiling assay)
Source text: SPR to GyrA N-terminal domain (data not shown); DNA gyrase supercoiling inhibition on DNA gyrase subunit A (GyrA) | SD8 bound to the GyrA N-terminal domain with a similar affinity to that reported previously
Target sequence in this assay (P0AES4 2-523): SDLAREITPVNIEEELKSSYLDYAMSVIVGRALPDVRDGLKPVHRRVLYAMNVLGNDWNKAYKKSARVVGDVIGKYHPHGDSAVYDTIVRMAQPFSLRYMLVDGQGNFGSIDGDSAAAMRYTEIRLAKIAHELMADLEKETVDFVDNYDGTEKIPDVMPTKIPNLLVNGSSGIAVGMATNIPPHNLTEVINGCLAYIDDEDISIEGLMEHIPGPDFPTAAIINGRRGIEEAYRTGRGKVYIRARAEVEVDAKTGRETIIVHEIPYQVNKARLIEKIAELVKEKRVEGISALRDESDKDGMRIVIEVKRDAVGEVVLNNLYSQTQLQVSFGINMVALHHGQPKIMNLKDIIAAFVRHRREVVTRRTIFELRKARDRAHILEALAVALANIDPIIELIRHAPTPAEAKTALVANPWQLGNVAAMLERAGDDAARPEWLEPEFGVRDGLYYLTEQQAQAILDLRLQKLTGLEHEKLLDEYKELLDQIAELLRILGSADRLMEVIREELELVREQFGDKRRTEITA

SimC7 [5] = molecular target: T2, SimC7; assay: HPLC-UV ketoreductase assay; also oxidised as substrate in the reverse reaction

For `CC(=O)O[C@@H]1[C@@H](C)O[C@@H](c2ccc3c(c2O)C(=O)[C@]24O[C@@]2(C3=O)[C@@]2(O)C(=O)C=C(C)C[C@@]2(O)C[C@@H]4O)C[C@H]1OC(=O)/C=C/C=C/C=C/C=C/C(=O)Nc1c(O)c2ccc(O)c(Cl)c2oc1=O` [7-oxo-SD8], which IC50 [1] is on record?
Its IC50 is 50 to 100 µM.

`COC(=O)/C=C/C=C/C=C/C=C/C(=O)Nc1c(O)c2ccc(O)c(Cl)c2oc1=O` [MGD8N2A] was tested. Which IC50 [2] did it give?
Its IC50 is 25 µM.

For `NC(=O)C1=CN([C@@H]2O[C@H](COP(=O)(O)OP(=O)(O)OC[C@H]3O[C@@H](n4cnc5c(N)ncnc54)[C@H](O)[C@@H]3O)[C@@H](O)[C@H]2O)C=CC1` [NADH], which “HPLC-UV ketoreductase assay (0.3 mM NAD(P)H)” value (SimC7 [3]) is on record?
The value was “SimC7 was able to use NADH or NADPH for the reduction (Fig. 6b)”.

How did the “HPLC-UV ketoreductase assay (0.3 mM NAD(P)H)” value (SimC7 [3]) turn out when `NC(=O)C1=CN([C@@H]2O[C@H](COP(=O)(O)OP(=O)(O)OC[C@H]3O[C@@H](n4cnc5c(N)ncnc54)[C@H](OP(=O)(O)O)[C@@H]3O)[C@@H](O)[C@H]2O)C=CC1` [NADPH] was run?
The value was “SimC7 was able to use NADH or NADPH for the reduction (Fig. 6b) but showed a preference for NADPH”.

How did the IC50 [4] turn out when `CC(=O)O[C@@H]1[C@@H](C)O[C@@H](c2ccc3c(c2O)[C@H](O)[C@]24O[C@@]2(C3=O)[C@@]2(O)C(=O)C=C(C)C[C@@]2(O)C[C@@H]4O)C[C@H]1OC(=O)/C=C/C=C/C=C/C=C/C(=O)Nc1c(O)c2ccc(O)c(Cl)c2oc1=O` [SD8, simocyclinone D8] was run?
Its IC50 is 0.1 to 0.5 µM.

With `CC(=O)O[C@@H]1[C@@H](C)O[C@@H](c2ccc3c(c2O)[C@H](O)[C@]24O[C@@]2(C3=O)[C@@]2(O)C(=O)C=C(C)C[C@@]2(O)C[C@@H]4O)C[C@H]1OC(=O)/C=C/C=C/C=C/C=C/C(=O)Nc1c(O)c2ccc(O)c(Cl)c2oc1=O` [compound 2, simocyclinone D8] as the compound, how does the “HPLC-UV ketoreductase assay; also oxidised as substrate in the reverse reaction” value (SimC7 [5]) read?
Its value is “It was also possible to assay the reaction in the reverse direction, following the oxidation of SD8 to 7-oxo-SD8 by SimC7”.
